Entries after “also recorded” stand apart in the source; their conditions may differ.
Assays:
[1] = system: gene expression in T47D breast cancer cells; assay: qPCR gene expression in T47D cells; type: cell-based; conditions: 1 μM + 1 nM E2, 16 h
[2] = system: gene expression in MCF7:WS8 breast cancer cells; assay: qPCR gene expression in MCF7:WS8 cells
[3] = system: SUMO1; assay: SUMO1 immunofluorescence in T47D cells; type: cell-based; conditions: 1 µM, 16 h
Protocol: Immunofluorescence was used to study the effects of these treatments on SUMO1 protein expression in these cells. […] Cellular localization was resolved using phalloidin to stain actin and DAPI to stain nuclei. […] Further studies are needed to decipher the role and estrogen dependence of SUMO1 in ER + breast cancer pathology.
T47D cells were cultured on coverslips for 24 h followed by 48 h growth in serum starved media. […] Cells were fixed for 10 min with 4% paraformaldehyde at room temperature was followed by three washes with ice-cold PBS-T (0.1% Tween 20, PBS) and 10 min of permeabilization with 0.5% saponin in PBS. Blocking was performed with 1% bovine serum albumin (BSA) in PBS-T for 30 min. Cells were incubated in a humidified chamber with 1:500 rabbit monoclonal anti-SUMO1 antibody (Abcam Ltd, Cambridge, UK, ab32058) in 1% BSA for 1 h at room temperature. Cells were washed 3 times with PBS-T, then incubated in the dark for 1 h with 1:1000 goat anti-rabbit IgG H&L (Alexa Fluor® 488) antibody (Abcam Ltd, ab150077) as well as 1:1000 phalloidin-iFluor 594 reagent (Abcam Ltd, ab176757) in 1% BSA. […] Quantification of nuclear fluorescent signal was performed using ImageJ 1.53t software. Fluorescent intensity of all nuclei within captured frames were measured and normalized by subtracting mean background fluorescence of 5 representative areas.

[4] = system: transcriptome of T47D breast cancer cells; assay: RNA sequencing of T47D cells; type: cell-based
Protocol: We next used RNA transcriptomic analysis (RNAseq) to identify differentially affected genes. […] All sequencing runs were performed with three replicates per treatment.
T47D breast cancer cells were grown in 6-well dishes at 50,000 cells per well. […] After 24 h, they were placed in serum-starved media for 48 h. […] RNA was isolated using a Qiagen RNeasy Kit then sent to Novogene for sequencing and bioinformatics analysis.

[5] = system: Ishikawa endometrial cells; assay: Alkaline phosphatase (AP) assay in Ishikawa cells; type: cell-based, human; conditions: 1 nM E2 or 1 μM compound, 72 h, absorbance at 405 nm, mean + std. dev., n = 3-9
Text: SERM enhancement of ERα accumulation in breast cancer cells correlates with uterotrophic activities[22],[30]. Despite the inclusion of side arms from known SERDs, most T6Is appeared SERM-like in breast cancer cells as they increased ERα levels. To measure the SERM-agonist activities of the T6Is, we employed an AP activity assay in Ishikawa endometrial cells[22],[32],[40]. […] Many T6Is show unexpected AP activities in these cells. […] Therefore, we would expect these SERMs to show a greater induction of AP (Supplementary Fig. 5). […] This difference was significant (p = 0.004) compared to 4OHT, which measured 0.68 ± 0.12 absorbance units. In most studies of SERM-agonist activities, AP assays are combined with increases in uterine wet-weight in vivo[22],[41],[42].
AP assays were performed as described. Briefly, 15,000 Ishikawa cells were seeded into 96-well plates then placed in serum-starved medium for 48–72 h. Cells were treated for three days with veh, hormone, SERM, or SERD. The media was aspirated and the cells were frozen at −80 °C for at least 24 h. Cells were thawed then incubated with p-nitrophenyl phosphate (ThermoFisher) chromogenic AP substrate. After 60 min at 40 °C, absorbance was read at 405 nm on a BioTek Cytation 5 plate reader.

[6] = target: T1, halo-ERα (Homo sapiens, UniProt P03372); assay: Live-cell halo-ERα accumulation assay in T47D cells; type: cell-based; conditions: 1 μM, 24 h
T1 construct: expressed in transfected cells; host or cells: T47D cells, doxycycline-inducible halo-ERα
T1 sequence (P03372 1-595): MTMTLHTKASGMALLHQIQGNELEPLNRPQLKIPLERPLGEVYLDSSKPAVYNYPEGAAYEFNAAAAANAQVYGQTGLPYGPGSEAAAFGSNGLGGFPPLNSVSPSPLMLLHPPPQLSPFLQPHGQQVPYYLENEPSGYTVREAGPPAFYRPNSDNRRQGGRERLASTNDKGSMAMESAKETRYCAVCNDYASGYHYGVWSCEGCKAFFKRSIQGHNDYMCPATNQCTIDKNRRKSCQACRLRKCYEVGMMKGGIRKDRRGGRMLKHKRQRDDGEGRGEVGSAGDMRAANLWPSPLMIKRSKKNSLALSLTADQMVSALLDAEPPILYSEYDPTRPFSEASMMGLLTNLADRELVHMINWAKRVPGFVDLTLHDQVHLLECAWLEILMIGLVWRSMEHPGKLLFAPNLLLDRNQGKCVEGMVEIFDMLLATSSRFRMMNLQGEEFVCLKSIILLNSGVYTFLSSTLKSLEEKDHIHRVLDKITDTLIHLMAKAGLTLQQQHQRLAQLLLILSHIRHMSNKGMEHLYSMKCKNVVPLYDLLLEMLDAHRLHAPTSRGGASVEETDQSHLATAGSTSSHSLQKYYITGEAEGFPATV
Text: SERMs and SERDs differentially affect ERα cellular lifetime/accumulation, which correlates with tissue-specific partial agonistic activities. SERMs increase WT ERα lifetime and are partial agonists in the bone and uterine epithelium by maintaining AF-1-dependent transcriptional coactivator recruitment. SERDs induce rapid WT ERα degradation and are pure antagonists[14],[17],[19],[22],[33]. […] We used an in-cell Western approach to measure how a subset of T6Is affected ERα levels in MCF7:WS8 breast cancer cells. […] A live cell halo-tagged ERα assay was then used to measure the impact of an expanded set of T6Is on receptor accumulation in T47D breast cancer cells after 24 h treatment. […] The difference between T6I-14 and 4OHT was not statistically significant in this assay. […] The IC50 values generally trended with observed differences in transcriptional IC50 (Fig. 2), while the effect at maximum dose varied greatly.
This assay was performed in accordance with a previous report. T47D breast cancer cells with a halo-ERα under a doxycycline (dox) control were grown in 96-well dishes starting at 3000 cells per well. Cells were placed in serum-starved media for 48–72 h then simultaneously treated with 1 µg/mL dox, and 1 µM Halo-TMR direct (Promega, G2991) alongside 5 pm to 1 µM compound for 24 h. […]

[7] = target: T2, ERα (Homo sapiens, UniProt P03372); assay: ERE transcriptional reporter gene assay in MCF7 cells; type: cell-based; parameters: endogenous in cells; host or cells: MCF7 cells with 3x-ERE-GFP reporter; conditions: MCF7, 1 nM E2
T2 sequence (P03372 1-595): T1 sequence (P03372 1-595)
Protocol: A cyclopropyl group was used in place of RAD1901’s ethylamine. […] We initially synthesized 4 derivatives comprised of different pharmacophores on the analogous steroidal A ring (Fig. 2d) and used an ERE reporter gene assay in MCF7 breast cancer cells to measure their transcriptional inhibitory activities.
This assay was performed in accordance with a previous report. MCF7 breast cancer cells with a 3x-estrogen response element-green fluorescent protein (GFP) reporter gene construct under a CMV promoter were plated in 96-well dishes at 3000 cells per well. Cells were cultured for 48 h in stripped media that included charcoal stripped fetal bovine serum (FBS). Cells were treated with increasing concentrations of antiestrogen (5 pm to 1 µM) for 24 h. Subsequently, percent GFP-positive cells were imaged using a BioTek Cytation 5 live cell imager. All assays were performed three times with three technical replicates each.

[8] = target: T3, ERα-SRC3 binding (Homo sapiens, UniProt P03372); assay: NanoBiT ERα-SRC3 assay in HEK293T cells; type: cell-based; conditions: 1 μM antagonist + 1 nM E2, 4 h
T3 construct: expressed in transfected cells; host or cells: HEK293T, transient co-transfection of pcDNA3.1 plasmids (gift of D. P. McDonnell)
T3 sequence (P03372 1-595): T1 sequence (P03372 1-595)
Protocol: SERMs and SERDs favor an ERα LBD protein conformation that occludes transcriptional coactivator binding. We used nanoBiT to study how the first set of T6I molecules inhibited ERα and steroid receptor coactivator-3 (SRC3) binding in HEK293T cells. […] Plasmids for smBiT-ERα and lgBiT-SRC3 were kindly donated by Dr. Donald P. McDonnell. Plasmids were co-transfected into HEK293T cells and placed in serum-starved medium for 48 h.
HEK293T cells were grown in 96-well clear bottom, white-walled plates to around 70% confluence. PCDNA 3.1 plasmids containing N-terminally tagged smBiT ERα or lgBiT SRC3 nuclear recognition domain (NRD) were kindly donated by Dr. Donald P. McDonnell. These plasmids were co-transfected with a total of 0.1 µg smBiT ERα and 0.1 µg LgBiT SRC3 NRD using Turbofectin 8.0 at a 3:1 ratio. After 24 h cells were placed in serum-starved media and allowed to acclimate for an additional 48–72 h. […] Data shown are the average of three independent replicates.

[9] = target: T2, ERα; assay: In-cell Western of ERα levels in T47D cells; type: cell-based; parameters: In-cell Western of endogenous ERα levels normalized to cell count in T47D breast cancer cells; endogenous in cells; host or cells: T47D breast cancer cells; conditions: 1 μM
Protocol: An in-cell Western assay was used to measure the effect of the purified T6I-29 enantiomers on the accumulation of ERα in T47D breast cancer cells at 1 μM dose.
In-cell Western analysis was performed in a similar manner as previously described. Briefly, T47D or MCF7:WS8 breast cancer cells were grown in blackout 96-well plates starting at 3000 cells per well. After 24 h, cells were placed in serum-starved media and allowed to acclimate for 48–72 h. Cells were treated with hormone, SERM, or SERD alongside vehicle control for 24 h. Only interior wells were used to avoid edge effects. Cells were fixed with 4% formaldehyde and permeabilized with 0.1% Triton X-100. Plates were blocked with Intercept blocking buffer (LI-COR). Santa Cruz F10 anti-ERα antibody (sc-8002) was used as the primary at 1:200-500 dilution. Secondary antibody was a goat anti-mouse IgG 800 IRDye antibody (926-32210) from LI-COR. Cells were also treated with CellTag700 (926-41090) to control for differences in cell count between wells. All data were collected on a LI-COR Odyssey DLx and analyzed using Emperia Studio. Each experiment was comprised of three replicates.

[10] = system: MCF7 breast cancer cells; assay: Crystal violet cellular viability assay; type: cell-based; conditions: MCF7, 1 to 1000 nM, 1 nM E2, 7 days
Protocol: (§1) In addition, we used a crystal violet assay to measure the effect of T6I-14-1 on MCF7 viability.
MCF7 breast cancer cells were placed in 24-well dishes at 15,000 cells per well. After 24 h, they were placed in serum-starved media for 48 to 72 h. […] After treatment, cells were stained with 0.4% crystal violet in 50% methanol for 30 min. Cells were washed with PBS to remove excess dye. 500 µL of methanol was then added to each well to dissolve the dye and placed on a rocker for 30 min at room temperature and the absorbance at 570 was recorded.

[11] = system: T47D breast cancer cells; assay: Cellular proliferation (label-free cell count), T47D; type: cell-based; conditions: 0.1 and 1 μM, 1 nM E2
Protocol: as §1
MCF7, MCF7:WS:8, Y537S ESR1 MCF7 and T47D breast cancer cell lines were grown in 96-well dishes at a starting cell count of 1000 cells per well. […] Cells were grown in a BioSpa attached to a BioTek Cytation 5 and were automatically counted every twelve hours for 7–10 days or until the E2-only wells reached confluence. Media was replaced every 4 days and drug was maintained in each media change. Each study was repeated three times with three technical replicates each.

Row | Structure (SMILES) | E2F1 mRNA [1] | CDK1 mRNA ([2]; MCF7:WS8) | E2F1, CDK1 and SUMO1 mRNA ([2]; MCF7:WS8, compared with T47D) | SUMO1 protein expression (immunofluorescence) [3] | SUMO-related differentially expressed genes (RNAseq) [4] | Reactome pathways relating to SUMO E3 ligases ([4]; 1 μM + 1 nM E2) | AP1 Induction [5] | halo-ERα accumulation at maximum dose [6] | anti-transcriptional activity (in words) [7] | inhibition of ERα-SRC3 binding (luminescence) [8] | ERα levels by in-cell Western [9] | cellular viability (crystal violet) [10] | cell count after 7 days (fold-change normalized to vehicle) [11]
1 | C[C@]12CC[C@@H]3c4ccc(O)cc4C[C@@H](CCCCCCCCC[S+]([O-])CCCC(F)(F)C(F)(F)F)[C@H]3[C@@H]1CC[C@@H]2O (stereo partly shown) [ICI, fulvestrant] | reduced impact | downregulated its expression | greater downregulation of E2F1 and CDK1 and upregulation of SUMO1 | enriched SUMO1 expression in the nuclei | upregulated SUMO1 and downregulated the SENP enzymes | significantly enriched | 0.25 + 0.08 | – | – | – | – | – | –
2 | CCN1CC(Oc2ccc(C3c4ccc(O)cc4CC4(CC4)N3C(=O)c3ccccc3)cc2)C1 (stereo not shown) [T6I-1] | – | – | – | – | – | – | 0.30 + 0.07 | SERD-like decrease to ERα levels; also recorded: weak ERα-degrading activities | ineffective anti-transcriptional agent | the least | – | – | –
3 | CCCN1CCC(COc2ccc(C3c4ccc(O)cc4CC4(CC4)N3C(=O)c3ccccc3)cc2)C1 (stereo not shown) [T6I-14-1] | – | – | – | – | – | – | 0.55 + 0.09 | – | – | among the most potent; also recorded: significant reduction compared to both 4OHT (p = 0.03) and E2 (p = 0.004) | enhanced ERα levels past 4OHT | reduced MCF7 cellular viability across all doses compared to 4OHT and ICI | significantly more effective (p = 0.01) than ICI

— PMC9748900, “Unconventional isoquinoline-based SERMs elicit fulvestrant-like transcriptional programs in ER+ breast cancer cells” (NPJ Breast Cancer, 2022)
